# Results taken from patent publication US5710173A, “Thienyl compounds for inhibition of cell proliferative disorders” (Sugen, Inc., priority 1995, dated 1998).
# Columns and labels:
# EGFR = target: T1, EGFR (Homo sapiens, UniProt P00533); test: EGFR Whole Cell Kinase Assay; format: cell-based; settings: EGFR/C7 NIH3T3 cells, EGF 25 nM; quantity and unit inferred; read-out: ELISA DATA, EGFR
# T1 construct: expressed in transfected cells; host or cells: NIH3T3 clone C7 (EGFR/C7)
# Text: The following examples illustrates the ability of the exemplary compounds to inhibit receptor tyrosine kinases, such as HER2 and/or EGFR. The following target cells were used for cellular kinase assays: NIH3T3 clone C7 (Honegger et al., supra) engineered to over-express human EGF receptor; NIH3T3 cells engineered to over-express a chimeric receptor containing the EGFR extracellular domain and the HER2 intracellular kinase domain; the human mammary carcinoma line BT474 (ATCC HTB2) expressing HER2; and the human glioblastoma line U1242 that expresses PDGFR-beta. Growth assays were carried out using human mammary epithelial SKBR3 (ATCC HTB30) cells (SKBR3 cells over-express HER2), SKOV3 (ATCC HTB77) human ovarian cancer cell line (SKOV3 cells also over-express HER2), A431 cells (A431 cells over-express EGFR) MCF7 human breast carcinoma cells, MCF7 cells overexpressing the HER2 kinase (MCF7-HER2), NIH3T3 cells, and NIH3T3 cells overexpressing the HER2 kinase (3T3-HER2.
# EGFR Whole Cell Kinase Assay
# EGFR kinase activity (EGFR-3T3 assay) in whole cells was measured as described below:
# 1) EGF Ligand: stock concentration=16.5 μM; EGF 201, TOYOBO, Co., Ltd. Japan.
# 2) 05-101 (UBI) (a monoclonal antibody recognizing an EGFR extracellular domain).
# 3) Anti-Phosphotyosine antibody (polyclonal) (made according to Fendley et al., Cancer Research 50:1550-1558, 1990). […]
# [1] = tested on: human breast cancer cells; settings: Sepp-Lorenzino et al., Abstract, 1994; cited from earlier work
# [2] = tested on: IGF-1R protein tyrosine kinase; settings: Sepp-Lorenzino et al., Abstract, 1994; cited from earlier work
# T1 sequence (P00533 25-1210): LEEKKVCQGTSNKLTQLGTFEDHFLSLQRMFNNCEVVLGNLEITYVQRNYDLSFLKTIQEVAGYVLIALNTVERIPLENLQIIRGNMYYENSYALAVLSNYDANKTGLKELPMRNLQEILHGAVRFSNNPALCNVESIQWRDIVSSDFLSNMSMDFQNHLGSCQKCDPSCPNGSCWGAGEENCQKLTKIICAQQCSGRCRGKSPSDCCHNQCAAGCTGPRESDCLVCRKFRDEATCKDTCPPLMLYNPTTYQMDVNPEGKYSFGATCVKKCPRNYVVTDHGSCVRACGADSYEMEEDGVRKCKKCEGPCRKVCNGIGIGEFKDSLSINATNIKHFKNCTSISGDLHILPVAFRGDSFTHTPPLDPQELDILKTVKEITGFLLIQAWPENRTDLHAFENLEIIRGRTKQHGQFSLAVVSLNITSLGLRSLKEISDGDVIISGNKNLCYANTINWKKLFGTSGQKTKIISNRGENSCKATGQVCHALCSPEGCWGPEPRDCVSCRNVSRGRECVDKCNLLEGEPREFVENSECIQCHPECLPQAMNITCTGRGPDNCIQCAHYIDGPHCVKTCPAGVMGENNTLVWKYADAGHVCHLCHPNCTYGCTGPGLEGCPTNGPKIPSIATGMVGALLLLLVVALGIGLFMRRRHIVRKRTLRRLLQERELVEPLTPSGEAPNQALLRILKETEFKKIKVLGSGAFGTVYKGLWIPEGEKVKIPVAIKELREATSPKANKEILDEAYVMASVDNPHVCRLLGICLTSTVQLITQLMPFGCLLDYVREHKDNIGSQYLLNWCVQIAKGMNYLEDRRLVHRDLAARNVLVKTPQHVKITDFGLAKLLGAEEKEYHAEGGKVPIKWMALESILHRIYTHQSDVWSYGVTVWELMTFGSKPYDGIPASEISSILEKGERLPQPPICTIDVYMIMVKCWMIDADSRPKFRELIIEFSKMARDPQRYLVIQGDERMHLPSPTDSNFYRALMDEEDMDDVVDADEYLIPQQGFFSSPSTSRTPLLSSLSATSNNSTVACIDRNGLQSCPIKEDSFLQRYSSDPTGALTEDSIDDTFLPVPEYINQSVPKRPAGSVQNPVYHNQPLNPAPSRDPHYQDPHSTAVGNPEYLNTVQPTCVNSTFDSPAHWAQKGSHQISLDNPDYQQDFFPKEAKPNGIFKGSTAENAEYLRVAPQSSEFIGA
SMILES,IC50 (EGFR) [µM],said to inhibit cellular proliferation in human breast cancer cells [1],said to inhibit the IGF-1R protein tyrosine kinase [2]
"N#C/C(=C\c1ccc([N+](=O)[O-])s1)S(=O)(=O)c1ccccc1 [Example G771, (E)-3-(2-nitrothien-5-yl)-2-phenylsulfonylacrylonitrile]",> 100,–,–
"N#C/C(=C\c1ccc([N+](=O)[O-])s1)S(=O)(=O)c1ccccn1 [Example G772, (E)-3-(2-nitrothien-5-yl)-2-[(pyridin-2-yl)sulfonyl]acrylonitrile]",> 100,–,–
COC1C=CC=C(C)C(=O)NC2=CC(=O)C=C(C2=O)C(OC)C(C)CC(OC)C(OC)C(C)C=C(C)C1OC(N)=O (stereo not shown) [Herbimycin A],–,inhibit,inhibit
